Test results from patent US20260042755A1, “GPR6 INVERSE AGONISTS” (MapLight Therapeutics, Inc., priority 2022, published 2026).

Tests used:
GPR3 = biological target: T1, GPR3 (Homo sapiens, UniProt P46089); test: GPR3 antagonist functional cAMP assay (LANCE Ultra cAMP TR-FRET, CHO cells stably expressing GPR3); assay type: cell-based; conditions: CHO cells stably expressing GPR3, cAMP assay
T1 construct: expressed in transfected cells; host or cells: CHO cells
Summary of the method: (§1)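 Cells in Krebs-Ringer buffer with 0.1% BSA and 150 μM Ro 20-1724 PDE inhibitor were exposed to compounds for 45 min at 37 °C (0.1% DMSO). cAMP was read by TR-FRET at 665 nm; IC50s came from 4-parameter fits normalized to DMSO and reference compound.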

GPR6 = biological target: T2, GPR6 (Homo sapiens, UniProt P46095); test: GPR6 antagonist functional cAMP assay (LANCE Ultra cAMP TR-FRET, CHO cells stably expressing GPR6); assay type: cell-based; conditions: CHO cells stably expressing GPR6, cAMP assay
T2 construct: expressed in transfected cells; host or cells: CHO cells
Summary of the method: as §1

T1 sequence (P46089 whole entry, species assumed): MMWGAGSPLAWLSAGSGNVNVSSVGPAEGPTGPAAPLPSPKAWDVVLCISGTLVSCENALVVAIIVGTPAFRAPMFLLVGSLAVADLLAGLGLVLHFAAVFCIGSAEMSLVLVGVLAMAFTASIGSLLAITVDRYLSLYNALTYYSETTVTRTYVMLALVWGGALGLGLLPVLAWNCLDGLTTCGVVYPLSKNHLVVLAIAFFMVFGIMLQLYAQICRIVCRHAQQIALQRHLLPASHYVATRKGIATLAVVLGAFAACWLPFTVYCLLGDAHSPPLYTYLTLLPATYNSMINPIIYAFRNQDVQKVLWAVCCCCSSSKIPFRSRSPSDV
T2 sequence (P46095 whole entry): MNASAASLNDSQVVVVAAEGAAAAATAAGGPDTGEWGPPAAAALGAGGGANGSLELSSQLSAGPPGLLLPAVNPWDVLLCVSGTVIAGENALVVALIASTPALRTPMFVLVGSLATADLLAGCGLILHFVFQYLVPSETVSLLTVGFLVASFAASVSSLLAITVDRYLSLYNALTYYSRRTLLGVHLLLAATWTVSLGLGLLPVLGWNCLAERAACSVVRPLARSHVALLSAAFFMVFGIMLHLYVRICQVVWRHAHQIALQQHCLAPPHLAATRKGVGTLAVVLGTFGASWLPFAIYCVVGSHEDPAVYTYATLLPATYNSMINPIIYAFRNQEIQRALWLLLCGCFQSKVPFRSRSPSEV

| SMILES | IC50 (GPR3) | IC50 (GPR6) |
| --- | --- | --- |
| CC(=O)N1CCc2nc(N3CCN(Cc4ccccc4Br)CC3)c(-c3cnn(C)c3)nc2C1 [Compound 508, 1-(2-{4-[(o-bromophenyl)methyl]-1-piperazinyl}-3-(1-methyl-4-pyrazolyl)-5,6,7,8-tetrahydro-1,4,6-triaza-6-naphthyl)-1-ethanone] | 1 to 30 µM | 0.1 to 1 µM |
| COc1ccccc1CN1CCN(c2nc3c(nc2-c2cnn(C)c2)CN(C(C)=O)CC3)CC1 [Compound 509, 1-(2-{4-[(o-methoxyphenyl)methyl]-1-piperazinyl}-3-(1-methyl-4-pyrazolyl)-5,6,7,8-tetrahydro-1,4,6-triaza-6-naphthyl)-1-ethanone] | 1 to 30 µM | ≥ 30 µM |
| CC(=O)N1CCc2nc(N3CCN(Cc4ccccc4C)CC3)c(-c3cnn(C)c3)nc2C1 [Compound 510, 1-[3-(1-methyl-4-pyrazolyl)-2-{4-[(o-tolyl)methyl]-1-piperazinyl}-5,6,7,8-tetrahydro-1,4,6-triaza-6-naphthyl]-1-ethanone] | 1 to 30 µM | 1 to 30 µM |
| CC(=O)N1CCc2nc(N3CCN(Cc4ccccn4)CC3)c(-c3cnn(C)c3)nc2C1 [Compound 511, 1-[3-(1-methyl-4-pyrazolyl)-2-{4-[(2-pyridyl)methyl]-1-piperazinyl}-5,6,7,8-tetrahydro-1,4,6-triaza-6-naphthyl]-1-ethanone] | ≥ 30 µM | ≥ 30 µM |
| CC(=O)N1CCc2nc(N3CCN(Cc4cccc(C#N)c4)CC3)c(-c3cnn(C)c3)nc2C1 [Compound 512, m-({4-[6-acetyl-3-(1-methyl-4-pyrazolyl)-5,6,7,8-tetrahydro-1,4,6-triaza-2-naphthyl]-1-piperazinyl}methyl)benzonitrile] | 1 to 30 µM | 1 to 30 µM |
| CC(=O)N1CCc2nc(N3CCC(Oc4ccc(Br)cn4)CC3)c(-c3cnn(C)c3)nc2C1 [Compound 513, 1-{2-[4-(5-bromo-2-pyridyloxy)-1-piperidyl]-3-(1-methyl-4-pyrazolyl)-5,6,7,8-tetrahydro-1,4,6-triaza-6-naphthyl}-1-ethanone] | 1 to 30 µM | 1 to 30 µM |
| CC(=O)N1CCc2nc(N3CCN(Cc4ccsc4)CC3)c(-c3cnn(C)c3)nc2C1 [Compound 514, 1-[3-(1-methyl-4-pyrazolyl)-2-{4-[(3-thienyl)methyl]-1-piperazinyl}-5,6,7,8-tetrahydro-1,4,6-triaza-6-naphthyl]-1-ethanone] | 1 to 30 µM | 1 to 30 µM |
| CC(=O)N1CCc2nc(N3CCN(Cc4cccs4)CC3)c(-c3cnn(C)c3)nc2C1 [Compound 515, 1-[3-(1-methyl-4-pyrazolyl)-2-(4-thenyl-1-piperazinyl)-5,6,7,8-tetrahydro-1,4,6-triaza-6-naphthyl]-1-ethanone] | 1 to 30 µM | 1 to 30 µM |
| CC(=O)N1CCc2nc(N3CCN(Cc4cscn4)CC3)c(-c3cnn(C)c3)nc2C1 [Compound 516, 1-[3-(1-methyl-4-pyrazolyl)-2-{4-[(1,3-thiazol-4-yl)methyl]-1-piperazinyl}-5,6,7,8-tetrahydro-1,4,6-triaza-6-naphthyl]-1-ethanone] | ≥ 30 µM | 1 to 30 µM |
| CC(=O)N1CCc2nc(N3CCN(Cc4cccnc4)CC3)c(-c3cnn(C)c3)nc2C1 [Compound 517, 1-[3-(1-methyl-4-pyrazolyl)-2-{4-[(3-pyridyl)methyl]-1-piperazinyl}-5,6,7,8-tetrahydro-1,4,6-triaza-6-naphthyl]-1-ethanone] | ≥ 30 µM | ≥ 30 µM |
| CC(=O)N1CCc2nc(N3CCN(Cc4ccncc4)CC3)c(-c3cnn(C)c3)nc2C1 [Compound 518, 1-[3-(1-methyl-4-pyrazolyl)-2-{4-[(4-pyridyl)methyl]-1-piperazinyl}-5,6,7,8-tetrahydro-1,4,6-triaza-6-naphthyl]-1-ethanone] | 1 to 30 µM | 1 to 30 µM |
